This assay addresses T1, GST-Bfl-1 (Homo sapiens, UniProt Q16548).
T1 construct: lacking their C-terminal transmembrane domains (about the last 20 amino acids) (“ΔTM”); made in house; host or cells: XL-1 Blue E. coli, pGEX 4T-1
T1 sequence (Q16548 1-155 limits assumed): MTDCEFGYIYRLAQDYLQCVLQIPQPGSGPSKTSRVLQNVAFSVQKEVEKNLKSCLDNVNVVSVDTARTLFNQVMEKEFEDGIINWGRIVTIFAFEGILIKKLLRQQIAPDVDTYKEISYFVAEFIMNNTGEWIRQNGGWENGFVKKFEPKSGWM
The assay is described as follows: Bfl-1/FITC-Bid BH3 competitive fluorescence polarization assay. It counts as binding. Conditions: primary HTS hits, MLSCN library (PubChem SIDs), Table 5B. For orientation: In fluorescence polarisation assays a small probe gives low polarisation when free and higher when bound to something large.

As to `Cc1ccc(-n2nc3ccc(NC(=O)c4ccc5c(c4)OCO5)cc3n2)cc1` [Compound 14732083], the “% Activity” value is 69.5% and the FRatio came out at 0.83.
Regarding `Cc1ccc(C(=O)ONc2ccc(/N=N/C(=O)c3ccccc3O)cc2)cc1` [Compound 14732345], the “% Activity” value was found to be 108.7% and the FRatio is given as 0.83.
For `O=C(Cc1cnn(-c2ccccc2)c1)c1ccc(O)c(O)c1O` [Compound 14732615] the same measures were 57.8% and 0.74.
The matching figures for `CCc1ccc(NC(=O)c2noc3c2CCC3)cc1` [Compound 14733222]: 68.1% and 0.73.
For `Cc1ccc(S(=O)(=O)Cc2ccc(C(=O)N3CCc4ccccc4C3)o2)cc1` [Compound 14733336] the same measures were 60.8% and 0.93.
For the compound `CCS(=O)(=O)NCc1ccc2c(c1)cc(C)n2C` [Compound 14733498], the “% Activity” value came to 51.8% and the FRatio was determined as 1.
In the case of `COc1ccc(NC(=O)c2noc3c2CCC3)cc1` [Compound 14733727], the “% Activity” value stood at 102.1% and the FRatio worked out at 0.93.
The matching figures for `CCc1ccccc1NC(=O)c1cc2ncc(Br)cn2n1` [Compound 14733824]: 74.2% and 0.79.
Take `CCOc1cc(/C=C2\C(=O)N(c3nc(-c4ccc(Br)cc4)cs3)N=C2c2ccccc2)ccc1O` [Compound 14733887]: the “% Activity” value came out at 68.2% and the FRatio is 0.76.
With `CC1CC(C)CN(C(=O)c2ccc3c(c2NCCO)C(=O)c2ccccc2C3=O)C1` (centres unmarked) [Compound 14734023], the “% Activity” value worked out at 83.7% and the FRatio is reported as 0.97.
The matching figures for `Cc1ccc(NC(=O)Nc2cccs2)c(Cl)c1` [Compound 14734202]: 66.3% and 1.39.
The matching figures for `Cc1cc(OCC(=O)Nc2ccc(N3CCCC3)cc2)cc(C)c1Cl` [Compound 14734365]: 59.3% and 0.71.
On to `CCC1=[N+](C)CCn2c(C)ccc21` [Compound 14734567], for which the “% Activity” value was determined as 57.1% and the FRatio came out at 1.
The matching figures for `CN(C)S(=O)(=O)N(CC(=O)N(Cc1ccccc1)Cc1ccccc1)c1ccccc1` [Compound 14736293]: 90.4% and 0.73.
For `CCOC(=O)c1ccc(NC2=CC(=O)C(=O)c3ccccc32)cc1` [Compound 14737410] the same measures were 89.5% and 1.15.
In the case of `Cc1ccc(S(=O)(=O)Cc2ccc(C(=O)O)o2)cc1` [Compound 14737647], the “% Activity” value is given as 66.5% and the FRatio is reported as 0.86.
For `CN(C)c1ccc(NC(=O)CN2C(=O)CN=C(c3ccccc3)c3cc(Cl)ccc32)cc1` [Compound 14738707] the same measures were 66.4% and 0.84.
The matching figures for `COc1ccc(C(=O)Nc2ccc(N3CCCC3)cc2)cc1` [Compound 14739290]: 78.8% and 0.85.
For `O=C(Cc1ccccc1)Nc1ccc(N2CCCC2)cc1` [Compound 14739360] the same measures were 59.1% and 0.93.
For `CC(=O)c1ccc(NC(=O)c2ccc3nc(-c4ccco4)c(-c4ccco4)nc3c2)cc1` [Compound 14740115], the “% Activity” value was found to be 59.5% and the FRatio stood at 0.97.
In the case of `CCC1=NNc2cccc3c(OC)ccc1c23` [Compound 14740154], the “% Activity” value is listed as 83.6% and the FRatio came to 1.
As to `CC(=O)Nc1ccc(S(=O)(=O)/N=C2/C(=O)c3ccccc3C(O)=C2N2CCN(Cc3ccccc3)CC2)cc1` [Compound 14742166], the “% Activity” value was 50.6% and the FRatio came to 0.73.
`Cc1ccc2c(c1)c(=O)c1c3n2CCN(C(=O)CCl)C3CC1` (centres unmarked) [Compound 14742276]: the “% Activity” value turned out to be 72.4% and the FRatio amounted to 0.88.
For `Cc1ccccc1NC(=O)CSc1nnc(-c2ccco2)c(-c2ccco2)n1` [Compound 14742395] the same measures were 56.3% and 1.09.
The matching figures for `Cc1c(CN(C)C)c2c(n1Cc1ccccc1)C(=O)c1ccc(Br)cc1-2` [Compound 14742663]: 78.5% and 0.61.
`CSc1nc2n(n1)C(c1ccccn1)C1=C(O)CC(C)(C)CC1=N2` (centres unmarked) [Compound 14742716]: the “% Activity” value is recorded as 61.8% and the FRatio came to 0.84.
Consider `O=C(Nc1cccnc1)c1ccc(S(=O)(=O)N2CCCCCC2)cc1` [Compound 14744015], for which the “% Activity” value turned out to be 88.4% and the FRatio is listed as 0.84.
On to `O=C(COC(=O)Cc1ccccc1)Nc1ncc(Cl)cc1Cl` [Compound 14744122], for which the “% Activity” value was found to be 58.8% and the FRatio worked out at 1.03.
As to `O=C(COC(=O)CC12CC3CC(CC(C3)C1)C2)Nc1ncc(Cl)cc1Cl` [Compound 14744137], the “% Activity” value came to 52% and the FRatio is 1.16.
For the compound `O=C(COC(=O)C1CCN(S(=O)(=O)c2cc([N+](=O)[O-])ccc2Cl)CC1)Nc1ncc(Cl)cc1Cl` [Compound 14744641], the “% Activity” value is reported as 75.9% and the FRatio was 0.93.
For `O=C(Nc1ccccc1N1CCOCC1)c1cc(-c2ccco2)nc2ccccc12` [Compound 14744733] the same measures were 61.4% and 0.83.
For `Cc1cnnn1-c1ccc(C(=O)CCl)cc1` [Compound 14744853] the same measures were 52.9% and 0.82.
Take `Cc1cc(N)ccc1N1CCCC1` [Compound 14744983]: the “% Activity” value was 86.5% and the FRatio was found to be 0.71.
For `O=C(c1cc2c(s1)CCC2)N1CCN(c2ccccc2)CC1` [Compound 14745443] the same measures were 71.6% and 0.73.
As for `O=C(OCC(=O)N1CCN(C(=O)c2ccco2)CC1)c1cc(-c2ccco2)nc2ccccc12` [Compound 14745657], the “% Activity” value is 73.4% and the FRatio turned out to be 0.97.
The matching figures for `Cc1ccc(-[n+]2c(-c3ccc(Br)cc3)cn3c2CCc2ccc4cccnc4c2-3)cc1` [Compound 14745910]: 56.2% and 0.81.
Regarding `COc1cccc(N2CCN(Cc3ccsc3)CC2)c1` [Compound 14746122], the “% Activity” value was determined as 56.1% and the FRatio is listed as 0.85.
Take `Oc1ccc(-c2cn3c(n2)SCC3)cc1O` [Compound 14746201]: the “% Activity” value worked out at 77.7% and the FRatio is 0.91.
The matching figures for `Cc1csc(N/N=C/c2ccc(O)c([N+](=O)[O-])c2)n1` [Compound 14746238]: 57.1% and 0.84.
As to `O=C(C[n+]1ccc(C(=O)N/N=C/c2ccc(O)cc2)cc1)c1ccccc1` [Compound 14746260], the “% Activity” value is given as 57.9% and the FRatio is 0.72.
Consider `CC(=O)c1c(CC(=O)O)nn(-c2nc3ccccc3s2)c1O` [Compound 14746319], for which the “% Activity” value is on record as 69% and the FRatio was 0.7.
As to `Cc1cc(C)c(NC(=O)CN(c2ccccc2)S(=O)(=O)N(C)C)c(C)c1` [Compound 14746364], the “% Activity” value worked out at 90.5% and the FRatio is 0.65.
Take `O=[N+]([O-])c1cc(/C=N/Nc2nccs2)ccc1O` [Compound 14746394]: the “% Activity” value is reported as 107% and the FRatio was 0.75.
`CCC(=O)Nc1cccc(NC(C)=O)c1` [Compound 14746435]: the “% Activity” value came to 92.4% and the FRatio is listed as 0.85.
The matching figures for `COc1cc2c(C#N)c(N3CCN(C)CC3)nc(N)c2c(N)n1` [Compound 14746488]: 51.4% and 0.92.
The matching figures for `Cc1cc(-c2csc(N)n2)c(C)n1C` [Compound 14746541]: 69.5% and 0.94.
For the compound `COc1ccccc1N1CCN(C(=O)c2cc3c(s2)CCC3)CC1` [Compound 14746697], the “% Activity” value worked out at 74.1% and the FRatio amounted to 0.9.
The matching figures for `Cc1ccc2c(Cl)cc(Cl)c(OCC(=O)NCc3ccco3)c2n1` [Compound 14747102]: 56.5% and 0.8.
For `Cc1cc[n+]2c3c(cccc13)CCC2` [Compound 14748512] the same measures were 76.6% and 0.76.
On to `CCCCNC(=O)COC(=O)c1ccc(Cl)c(S(=O)(=O)N2CCCC2)c1` [Compound 16952426], for which the “% Activity” value worked out at 54.8% and the FRatio is given as 0.92.
For `C[C@@H](C(=O)Nc1nc(-c2ccccn2)cs1)N1C(=O)C2CCCCC2C1=O` (some centres unmarked) [Compound 16952892] the same measures were 51.1% and 1.04.
The matching figures for `Cc1ccc(/N=N/c2ccc(O)c(/C=N/NC(=O)c3ccc(N)cc3)c2)cc1C` [Compound 16952937]: 91.7% and 0.71.
Turning to `Cc1cc(C)c(I)c(S(=O)(=O)N2CCC(C(=O)OCC(=O)N3c4ccccc4NC(=O)C3(C)C)CC2)c1C` [Compound 16952989], the “% Activity” value worked out at 72.9% and the FRatio turned out to be 0.93.
Regarding `COc1ccc(S(=O)(=O)N2Cc3ccccc3CC2C(=O)O)cc1` (centres unmarked) [Compound 16953199], the “% Activity” value turned out to be 53% and the FRatio is recorded as 0.85.
For the compound `O=C(COC(=O)c1ccc(S(=O)(=O)NCc2ccco2)cc1)NCC1CCCCC1` [Compound 16953469], the “% Activity” value amounted to 60.3% and the FRatio is recorded as 1.01.

(Values after patent US20090118135A1, “METHODS AND COMPOUNDS FOR REGULATING APOPTOSIS” (The Burnham Institute, priority 2007, published 2009).)
